Measurements taken from publication PMC7601695, “Transcriptome Analysis of Psacothea hilaris: De Novo Assembly and Antimicrobial Peptide Prediction” (Insects, 2020).

Columns and labels:
Assay type in all cases: cell-based
mouse erythrocytes = assay: Hemolytic assay; settings: 12.5 μg/mL; 2.5% (v/v) mouse erythrocytes in PBS; 30 min, 37 °C; A540
Experimental: This experiment was approved by the Institutional Animal Care and Use Committee (IACUC) of the National Institute of Agricultural Sciences (approval number: NAS-202014). The hemolytic activity of the peptides was determined by monitoring the release of hemoglobin from mouse erythrocytes at 540 nm. For the hemolytic assay, 20 μL of each peptide solution at a predetermined concentration was added to 180 μL of a 2.5% (v/v) suspension of mouse erythrocytes in phosphate-buffered saline (PBS). Melittin (Sigma), a hemolytic and α-helical peptide isolated from bee venom, were used as the positive control. This mixture was incubated for 30 min at 37 °C, and 600 μL of PBS was then added to each tube. After 3 min of centrifugation at 10,000× g, the supernatant was […], and the absorbance was measured at 540 nm. Evaluations were made from the results of at least three independent experiments, each carried out in triplicate.
Figure 4 Cytotoxic effects of 13 selected peptides. Hemolytic activity of the peptides. Peptide concentration (x-axis) is plotted against the percentage of hemolysis (y-axis) of mouse red blood cells after incubation for 30 min. Melittin was used as the positive control. The percent hemolysis was calculated with the following equation: hemolysis (%) = (A540 of samp—A540 of peptide-free control)/(A540 of 100% control—A540 of peptide-free control) × 100. […]

[1] = test system: Staphylococcus aureus (KACC 10768, ATCC 25923); assay: Radial diffusion assay, S. aureus; settings: peptide 200 μg/mL, 5 μL per 3-mm well, 3 h diffusion then 12 h at 37 °C, mean of tests repeated three times
Experimental: (§1) The bacterial strains Escherichia coli (KACC 13821, ATCC 11775) and Staphylococcus aureus (KACC 10768, ATCC 25923), and the yeast strain Candida albicans (KCTC 7121, ATCC 14053) were purchased from the Korean Agricultural Culture Collection (KACC) and Korean Collection for Type Cultures (KCTC). Both bacteria and yeast were grown overnight in tryptic soy broth (TSB; Difco, Thermo Fisher Scientific, Waltham, MA, USA) at 37 °C, 200 rpm to the stationary phase. Bacteria were re-inoculated in fresh TSB medium and cultivated for 3 h to the log phase. The strains were stored with 15% glycerol at −70 °C.
(§2) The radial diffusion assay was performed to test the antimicrobial activities of peptides, as described previously with slight modifications. In brief, bacteria and yeast strains were grown to the mid-logarithmic phase in TSB at 37 °C and then washed twice with 10 mM sodium phosphate buffer (pH 7.4). A total of 4 × 10^6 colony forming unit (CFU) was added to 10 mL of an underlay agarose gel (9 mM sodium phosphate, 1 mM sodium citrate, pH 7.4, 1% (w/v) Type I (low electroendosmosis) agarose (Sigma, St. Louis, MO, USA), and 3% TSB (Difco, USA)). The underlay gel was poured into a 100-mm INTEGRIDTM Petri dish. After agarose solidification, 3-mm-diameter wells were punched and 5 μL of each peptide solution was added to each well. Buffer alone was used as a negative control. Plates were incubated at 37 °C for 3 h to allow for diffusion of the peptides. The underlay gel was then covered with 10 mL of nutrient-rich agar overlay (6% TSB and 1% agarose). The antimicrobial activity of a peptide was measured as the diameter of the cleared zone around each well after 12 h of incubation at 37 °C. This experiment was repeated at least 3 times.

[2] = test system: Candida albicans (KCTC 7121, ATCC 14053); assay: Radial diffusion assay, C. albicans; settings: for Diameter of clearing zone, C. albicans: peptide 200 μg/mL, 5 μL per 3-mm well, 3 h diffusion then 12 h at 37 °C, mean of tests repeated three times; for Antimicrobial activity compared with melittin, C. albicans: in words
Experimental: as §1, §2

[3] = test system: Escherichia coli (KACC 13821, ATCC 11775); assay: Radial diffusion assay, E. coli; settings: for Diameter of clearing zone, E. coli: peptide 200 μg/mL, 5 μL per 3-mm well, 3 h diffusion then 12 h at 37 °C, mean of tests repeated three times; for Antimicrobial activity compared with melittin, E. coli: in words
Experimental: as §1, §2

| Compound | Hemolysis of mouse red blood cells (mouse erythrocytes) | Diameter of clearing zone, S. aureus [1] | Diameter of clearing zone, C. albicans [2] | Diameter of clearing zone, E. coli [3] | Antimicrobial activity compared with melittin, C. albicans [2] | Antimicrobial activity compared with melittin, E. coli [3] |
| --- | --- | --- | --- | --- | --- | --- |
| CC[C@H](C)[C@H](NC(=O)CN)C(=O)NCC(=O)N[C@@H](C)C(=O)N[C@H](C(=O)N[C@@H](CC(C)C)C(=O)N[C@@H](CCCCN)C(=O)N[C@H](C(=O)N[C@@H](CC(C)C)C(=O)N[C@H](C(=O)N[C@H](C(=O)NCC(=O)N[C@@H](CC(C)C)C(=O)N1CCC[C@H]1C(=O)N[C@@H](C)C(=O)N[C@@H](CC(C)C)C(=O)N[C@H](C(=O)N[C@@H](CO)C(=O)N[C@@H](Cc1c[nH]c2ccccc12)C(=O)N[C@H](C(=O)N[C@@H](CCCCN)C(=O)N[C@@H](CCCNC(=N)N)C(=O)N[C@@H](CCCCN)C(=O)N[C@@H](CCCNC(=N)N)C(=O)N[C@@H](CCC(N)=O)C(=O)N[C@@H](CCC(N)=O)C(N)=O)[C@@H](C)CC)[C@@H](C)CC)[C@@H](C)O)[C@@H](C)O)C(C)C)C(C)C [Melittin, reference compound] | 92% | 100 Units (1 mm = 10 Units) | 65 Units (1 mm = 10 Units) | 75 Units (1 mm = 10 Units) |  |  |
| RKSWRHWKC * [Ph 16, synthetic peptide predicted as novel AMP from the P. hilaris transcriptome] |  | 87 Units (1 mm = 10 Units) | 65 Units (1 mm = 10 Units) | 50 Units (1 mm = 10 Units) |  |  |
| KLSNAVFKSCRKI * [Ph 24, synthetic peptide predicted as novel AMP from the P. hilaris transcriptome] |  | 65 Units (1 mm = 10 Units) | 47 Units (1 mm = 10 Units) | 49 Units (1 mm = 10 Units) |  |  |
| KRGYQVPRIAFII * [Ph 3, synthetic peptide predicted as novel AMP from the P. hilaris transcriptome] |  | 85 Units (1 mm = 10 Units) | 80 Units (1 mm = 10 Units) | 72 Units (1 mm = 10 Units) | stronger antimicrobial activity than melittin |  |
| KRIFYLYIRGQ * [Ph 22, synthetic peptide predicted as novel AMP from the P. hilaris transcriptome] |  | 95 Units (1 mm = 10 Units) | 92 Units (1 mm = 10 Units) | 85 Units (1 mm = 10 Units) | stronger antimicrobial activity than melittin | stronger antimicrobial activity than melittin |
| KLPIVNVKLVNRIK * [Ph 2, synthetic peptide predicted as novel AMP from the P. hilaris transcriptome] |  | 90 Units (1 mm = 10 Units) | 80 Units (1 mm = 10 Units) | 80 Units (1 mm = 10 Units) | stronger antimicrobial activity than melittin | stronger antimicrobial activity than melittin |
| RLLLLCYACGKS * [Ph 12, synthetic peptide predicted as novel AMP from the P. hilaris transcriptome] |  | 75 Units (1 mm = 10 Units) | 40 Units (1 mm = 10 Units) | 70 Units (1 mm = 10 Units) |  |  |
| RAIKWPGNGLLFLKY * [Ph 1, synthetic peptide predicted as novel AMP from the P. hilaris transcriptome] |  | 86 Units (1 mm = 10 Units) | 65 Units (1 mm = 10 Units) | 85 Units (1 mm = 10 Units) |  | stronger antimicrobial activity than melittin |
| KLQVVPAIHLVWLQK * [Ph 4, synthetic peptide predicted as novel AMP from the P. hilaris transcriptome] |  | 80 Units (1 mm = 10 Units) | 30 Units (1 mm = 10 Units) | 75 Units (1 mm = 10 Units) |  |  |
| RISCVAMRLILK * [Ph 10, synthetic peptide predicted as novel AMP from the P. hilaris transcriptome] |  | 72 Units (1 mm = 10 Units) | 48 Units (1 mm = 10 Units) | 67 Units (1 mm = 10 Units) |  |  |
| KMFTKCIRYRKM * [Ph 20, synthetic peptide predicted as novel AMP from the P. hilaris transcriptome] |  | 85 Units (1 mm = 10 Units) | 68 Units (1 mm = 10 Units) | 65 Units (1 mm = 10 Units) |  |  |
| KIGTFIKKLSYTS * [Ph 26, synthetic peptide predicted as novel AMP from the P. hilaris transcriptome] |  | 75 Units (1 mm = 10 Units) | 25 Units (1 mm = 10 Units) | 85 Units (1 mm = 10 Units) |  | stronger antimicrobial activity than melittin |
| RCLKTCFLSFIRY * [Ph 8, synthetic peptide predicted as novel AMP from the P. hilaris transcriptome] |  | 83 Units (1 mm = 10 Units) | 45 Units (1 mm = 10 Units) | 71 Units (1 mm = 10 Units) |  |  |
| RRRCRCCRY * [Ph 14, synthetic peptide predicted as novel AMP from the P. hilaris transcriptome] |  | 70 Units (1 mm = 10 Units) | 105 Units (1 mm = 10 Units) | 65 Units (1 mm = 10 Units) | stronger antimicrobial activity than melittin |  |
